How the values were obtained:
Test in all cases: relative viability (nuclei count vs DMSO), 5 days (fraction); higher = more cells survive
Motesanib + Alpelisib = compound: CC1(C)CNc2cc(NC(=O)c3cccnc3NCc3ccncc3)ccc21 [Motesanib] + Cc1nc(NC(=O)N2CCC[C@H]2C(N)=O)sc1-c1ccnc(C(C)(C)C(F)(F)F)c1 [Alpelisib] (partner 2 µM)
Outline: (§1)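 Lung cancer cell lines in 1536-well plates got either a single drug or a fixed anchor-drug dose together with five library-drug doses (not always all listed) in √10 steps, by pin tool, on the day after seeding. Nuclei were counted after 5 days, and relative viability is the treated-to-vehicle ratio of nuclei counts. Values are medians of duplicate plates.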

[1] = compound: C[C@@]1(C(=O)Nc2ccc(F)nc2)CCCN1c1nc(Nc2cc(C3CC3)n[nH]2)c2cccn2n1 + COc1cc2c(Oc3ccc(NC(=O)C4(C(=O)Nc5ccc(F)cc5)CC4)cc3F)ccnc2cc1OCCCN1CCOCC1 [Foretinib] (partner 0.25 µM)
Outline: as §1

[2] = compound: C[C@@]1(C(=O)Nc2ccc(F)nc2)CCCN1c1nc(Nc2cc(C3CC3)n[nH]2)c2cccn2n1 + N=C(N)NC(=N)NCCc1ccccc1 [Phenformin] (partner 250 µM)
Outline: as §1

Motesanib + Dasatinib = compound: CC1(C)CNc2cc(NC(=O)c3cccnc3NCc3ccncc3)ccc21 [Motesanib] + Cc1nc(Nc2ncc(C(=O)Nc3c(C)cccc3Cl)s2)cc(N2CCN(CCO)CC2)n1 [Dasatinib] (partner 0.075 µM)
Outline: as §1

Cell Line	relative viability (Motesanib + Alpelisib; first compound 0.01 µM)	relative viability (Motesanib + Alpelisib; first compound 0.03162 µM)	relative viability (Motesanib + Alpelisib; first compound 0.1 µM)	relative viability (Motesanib + Alpelisib; first compound 0.3162 µM)	relative viability (Motesanib + Alpelisib; first compound 1 µM)	relative viability ([1]; first compound 0.04 µM)	relative viability ([1]; first compound 0.1265 µM)	relative viability ([1]; first compound 0.4 µM)	relative viability ([1]; first compound 1.265 µM)	relative viability ([2]; first compound 0.04 µM)	relative viability ([2]; first compound 0.1265 µM)	relative viability ([2]; first compound 0.4 µM)	relative viability ([2]; first compound 1.265 µM)	relative viability (Motesanib + Dasatinib; first compound 0.01 µM)	relative viability (Motesanib + Dasatinib; first compound 0.03162 µM)	relative viability (Motesanib + Dasatinib; first compound 0.1 µM)	relative viability (Motesanib + Dasatinib; first compound 0.3162 µM)	relative viability (Motesanib + Dasatinib; first compound 1 µM)
NCI-H1915	1.02	1.02	1.03	1.02	1.06	1.11	1.04	1.04	1.18	0.372	0.381	0.378	0.347	0.32	0.329	0.303	0.312	0.279
NCI-H1944	0.785	0.853	0.89	0.885	0.855	0.764	0.676	0.496	0.649	0.169	0.153	0.136	0.133	0.205	0.215	0.25	0.225	0.231
NCI-H1975	0.681	0.588	0.615	0.61	0.675	0.861	0.962	0.88	0.716	0.407	0.36	0.326	0.314	0.363	0.328	0.397	0.324	0.312
NCI-H1993	0.656	0.659	0.765	0.697	0.642	0.659	0.67	0.532	0.555	0.495	0.657	0.541	0.55	0.629	0.509	0.639	0.63	0.588
NCI-H2009	1.15	1.18	1.17	1.19	1.15	1.23	1.25	1.1	1.14	0.539	0.493	0.479	0.481	0.286	0.245	0.304	0.314	0.346
NCI-H2023	0.628	0.669	0.68	0.619	0.648	0.488	0.475	0.36	0.279	0.354	0.271	0.294	0.189	0.576	0.476	0.575	0.59	0.662
NCI-H2085	0.939	1.01	1.02	0.943	1.05	0.989	0.736	0.73	0.675	0.815	0.631	0.607	0.416	0.286	0.204	0.225	0.252	0.23
NCI-H2087	1.01	1.08	1.07	1.16	1.03	0.812	0.801	0.705	0.72	0.437	0.342	0.313	0.237	0.838	0.841	0.774	0.91	0.895
NCI-H2126	0.77	0.723	0.724	0.768	0.699	0.885	0.661	0.485	0.865	0.459	0.293	0.314	0.293	0.598	0.541	0.597	0.545	0.635
NCI-H2170	0.803	0.789	0.824	0.785	0.794	0.932	1.02	0.973	1.08	0.432	0.396	0.419	0.357	0.533	0.507	0.463	0.511	0.57
NCI-H2228	0.767	0.713	0.722	0.777	0.806	0.719	0.686	0.491	0.537	0.223	0.196	0.171	0.232	0.497	0.49	0.549	0.495	0.502
NCI-H2347	1.02	1	1.14	1.09	1.18	1.32	0.818	1.02	0.834	0.368	0.495	0.312	0.41	0.299	0.302	0.344	0.3	0.305
NCI-H2405	–	0.738	0.745	0.86	0.942	0.866	0.818	0.742	0.77	0.351	0.273	0.226	0.276	–	0.196	0.232	0.283	0.208
NCI-H3122	0.789	0.79	0.915	0.921	0.946	0.978	0.937	0.942	0.893	0.411	0.373	0.387	0.575	0.705	0.825	0.677	0.893	0.916
PC-3 [JPC-3]	1.09	1.03	1.07	1.09	1.03	1.08	1.02	0.959	1.34	0.504	0.467	0.456	0.476	0.845	0.989	0.974	1.04	0.974
PC-14	0.958	1.03	0.998	0.931	0.958	1.04	0.888	0.813	0.93	0.708	–	0.517	0.523	0.288	0.286	0.256	0.298	0.319
RERF-LC-KJ	0.814	0.805	0.854	0.642	0.86	0.815	0.777	0.659	0.714	0.315	0.348	0.322	0.273	0.92	0.803	0.806	0.811	0.839
SK-LU-1	1.11	1.07	1.17	0.93	1.05	0.782	0.546	0.602	0.575	0.476	0.396	0.361	0.409	0.189	0.189	0.183	0.198	0.209
